“And” between values parts separate entries of the source, which are not always exact repeats. Equal values may be shown once.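 Where inhibition never reached the appropriate level, the endpoint shown equals the highest concentration tested. Otherwise, values were interpolated linearly from a five-concentration, 48-hour dose response in 96-well plates. Here, GI50 denotes the concentration required for 50% inhibition of growth. TGI is the concentration that stops growth completely.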 Non-standard residues stand in square brackets, D forms with d. Residues, ends and D or L forms follow the SMILES beside them. ξ: configuration not given here. Pen = CC(C)(S)[C@H](N)C(=O)O; ξL = CC(C)CC(N)C(=O)O
How the values were obtained:
Test in all cases: NCI tumour cell line growth inhibition, 48 h
[1] = system: SF-268 CNS
[2] = system: EKVX NSCLC
[3] = system: DMS 273 small cell lung
[4] = system: OVCAR-3 ovarian
[5] = system: MOLT-4 leukemia
[6] = system: SK-MEL-5 melanoma
[7] = system: OVCAR-4 ovarian
[8] = system: OVCAR-8 ovarian
[9] = system: HOP-92 NSCLC
[10] = system: NCI-H460 lung
[11] = system: KM20L2 colon
[12] = system: TK-10 renal
[13] = system: HT29 colon
[14] = system: MALME-3M melanoma
[15] = system: CCRF-CEM leukemia
[16] = system: SNB-19 CNS
[17] = system: U251 CNS
[18] = system: SNB-75 CNS
[19] = system: RPMI-8226 leukemia
[20] = system: SW-620 colon
[21] = system: NCI-H23 lung
[22] = system: SN12C renal
[23] = system: UACC-62 melanoma
[24] = system: KM12 colon
[25] = system: A498 renal
[26] = system: K-562 leukemia
[27] = system: OVCAR-5 ovarian
[28] = system: 786-0 renal
[29] = system: SF-539 CNS
[30] = system: SK-OV-3 ovarian
[31] = system: SR leukemia
[32] = system: DMS 114 small cell lung
[33] = system: M14 melanoma
[34] = system: SK-MEL-28 melanoma
[35] = system: COLO 205 colon
[36] = system: HOP-62 NSCLC
[37] = system: SNB-78 CNS
[38] = system: HL-60(TB) leukemia
[39] = system: UO-31 renal
[40] = system: HCT-15 colon
[41] = system: LXFL 529 NSCLC
[42] = system: DLD-1 colon
[43] = system: RXF 393 renal
[44] = system: HCC-2998 colon
[45] = system: UACC-257 melanoma
[46] = system: RXF-631 renal
[47] = system: IGROV1 ovarian
[48] = system: A549 NSCLC
[49] = system: HCT-116 colon
[50] = system: SF-295 CNS
[51] = system: M19-MEL melanoma
[52] = system: ACHN renal
[53] = system: NCI-H226 lung
[54] = system: SK-MEL-2 melanoma
[55] = system: HOP-18 NSCLC
[56] = system: CAKI-1 renal
[57] = system: LOX IMVI melanoma
[58] = system: P388/ADR leukemia
[59] = system: SN12K1 renal
[60] = system: XF 498 CNS
[61] = system: P388 leukemia
[62] = system: PC-3 prostate
[63] = system: HS 578T breast
[64] = system: DU-145 prostate
[65] = system: MDA-N
[66] = system: T-47D breast
[67] = system: MDA-MB-231 breast
[68] = system: BT-549 breast
[69] = system: MDA-MB-435

## O=[N+]([O-])c1ccc(Cl)c(C2CC(c3cccc4ccccc34)=Nc3ccccc3S2=O)c1 (stereo not given)
[1]
  TGI: > 100 µM
[2]
  TGI: > 100 µM
[3]
  TGI: > 100 µM
[4]
  TGI: 83.4 µM
[5]
  TGI: 62.8 µM
[6]
  TGI: 40 µM
[7]
  TGI: > 84.2 µM
[8]
  TGI: 20.8 µM
[9]
  TGI: 22.8 µM
[10]
  TGI: > 76.4 µM
[11]
  TGI: > 63.6 µM
[12]
  TGI: 98.2 µM
[13]
  TGI: 37.9 µM
[14]
  TGI: 42.5 µM
[15]
  TGI: 11.1 µM
[16]
  TGI: > 53.8 µM
[17]
  TGI: 20.2 µM
[18]
  TGI: > 100 µM
[19]
  TGI: 7.7 µM
[20]
  TGI: 33.5 µM
[21]
  TGI: 17.4 µM
[22]
  TGI: > 60.4 µM
[23]
  TGI: 40.8 µM
[24]
  TGI: > 100 µM
[25]
  TGI: 64.7 µM
[26]
  TGI: 37 µM
[27]
  TGI: 76.1 µM
[28]
  TGI: 28.5 µM
[29]
  TGI: 19.1 µM
[30]
  TGI: > 100 µM
[31]
  TGI: 93.1 µM
[32]
  TGI: 41.1 µM
[33]
  TGI: 59.7 µM
[34]
  TGI: 42.8 µM
[35]
  TGI: 97.7 µM
[36]
  TGI: > 62.6 µM
[37]
  TGI: 38.9 µM
[38]
  TGI: 34.1 µM
[39]
  TGI: > 46.7 µM
[40]
  TGI: > 100 µM
[41]
  TGI: 52.8 µM
[42]
  TGI: 26.1 µM
[43]
  TGI: 21.1 µM
[44]
  TGI: > 50.3 µM
[45]
  TGI: > 86.4 µM
[46]
  TGI: > 100 µM
[47]
  TGI: > 85.1 µM
[48]
  TGI: > 100 µM
[49]
  TGI: 35.1 µM
[50]
  TGI: 61 µM
[51]
  TGI: > 62.7 µM
[52]
  TGI: 52.9 µM
[53]
  TGI: > 54.5 µM
[54]
  TGI: 37.4 µM
[55]
  TGI: > 100 µM
[56]
  TGI: > 69.8 µM
[57]
  TGI: > 31.6 µM

## CSCC[C@H](NC(=O)C(CC(C)C)NC(=O)[C@H](Cc1c[nH]cn1)NC(=O)CNC(=O)[C@@H](NC(=O)[C@@H](C)NC(=O)[C@H](Cc1c[nH]c2ccccc12)NC(=O)[C@H](CCC(N)=O)NC(=O)[C@@H](N)CC(N)=O)C(C)(C)SC)C(N)=O (stereo not given in full) (H-NQW[dA][Pen](Me)GH[ξL]M-NH2)
[3]
  TGI: > 100 µM
[58]
  TGI: > 100 µM
[9]
  TGI: > 100 µM
[11]
  TGI: > 100 µM
[59]
  TGI: > 100 µM
[21]
  TGI: > 100 µM
[32]
  TGI: > 100 µM
[60]
  TGI: > 100 µM
[61]
  TGI: > 100 µM
[37]
  TGI: > 100 µM
[42]
  TGI: > 100 µM
[45]
  TGI: > 100 µM
[51]
  TGI: > 100 µM
[53]
  TGI: > 100 µM
[55]
  TGI: > 100 µM

## COc1cccc2c1C(=O)c1c(O)c3c(c(O)c1C2=O)C[C@@](O)(C(=O)CO)C[C@@H]3OC1CC(N2CCOCC2)C(O)C(C)O1 (stereo not given in full)
[62]
  TGI: 0.241 µM
[58]
  GI50: 0.0025 µM
[63]
  TGI: 0.228 µM
[64]
  TGI: 3.37 µM
[12]
  TGI: 2.07 µM
[65]
  TGI: 0.175 µM
[66]
  TGI: 1.06 µM
[67]
  TGI: 0.433 µM
[25]
  TGI: 0.0232 µM and 0.0486 µM and 0.00651 µM
[28]
  GI50: < 0.0131 µM
  TGI: 0.611 µM
[31]
  GI50: 0.00553 µM
[68]
  TGI: 0.392 µM
[33]
  TGI: 0.149 µM
[69]
  TGI: 0.195 µM
[52]
  GI50: 0.00841 µM
  TGI: 0.0736 µM
[53]
  TGI: 0.00866 µM and 0.0283 µM and 0.00455 µM

— PubChem BioAssay (NCI)
